Laboratory results as given in patent publication US20260297080A1, “BICYCLIC COMPOUNDS AS CDK INHIBITORS” (BeOne Medicines I GmbH, priority 2022, published 2026).

How the values were obtained:
[1] = target: CDK1/Cyclin B1 (Homo sapiens, UniProt P06493); test: CDK1/Cyclin B1 Biochemical Assay (TR-FRET), 0.015 mM ATP; details: 0.15 μM Rb (Ser780)-biotin substrate, pH7.0, 60 min preincubation, 120 min reaction, room temperature
Summary of the method: (§1)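 TR-FRET assay with 0.15 μM Rb (Ser780)-biotin substrate and 0-10 μM compound in 50 mM HEPES pH7.0, 50 mM MgCl2, 1 mM DTT. ATP was 0.060 mM for CDK2/Cyclin E1 and 0.015 mM for CDK1/Cyclin B1. Kinase was preincubated with compound 60 min, reacted 120 min at room temperature, and IC50 was fitted (four-parameter) from the 665/620 nm ratio.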

[2] = target: CDK2/Cyclin E1 (Homo sapiens, UniProt P24941); test: CDK2/Cyclin E1 Biochemical Assay (TR-FRET), 0.060 mM ATP; details: 0.15 μM Rb (Ser780)-biotin substrate, pH7.0, 60 min preincubation, 120 min reaction, room temperature
Summary of the method: as §1

CDK1/Cyclin B1, sequence (P06493 whole entry): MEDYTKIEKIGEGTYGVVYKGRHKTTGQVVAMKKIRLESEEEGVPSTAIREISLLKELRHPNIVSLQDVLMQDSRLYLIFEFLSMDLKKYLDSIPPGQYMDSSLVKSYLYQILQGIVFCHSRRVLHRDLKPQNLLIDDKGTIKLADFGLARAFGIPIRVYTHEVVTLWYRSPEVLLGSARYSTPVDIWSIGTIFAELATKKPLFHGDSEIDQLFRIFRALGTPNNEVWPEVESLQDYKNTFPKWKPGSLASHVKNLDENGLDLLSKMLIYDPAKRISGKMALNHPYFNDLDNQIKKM
CDK1/Cyclin B1, sequence (P14635 whole entry partner): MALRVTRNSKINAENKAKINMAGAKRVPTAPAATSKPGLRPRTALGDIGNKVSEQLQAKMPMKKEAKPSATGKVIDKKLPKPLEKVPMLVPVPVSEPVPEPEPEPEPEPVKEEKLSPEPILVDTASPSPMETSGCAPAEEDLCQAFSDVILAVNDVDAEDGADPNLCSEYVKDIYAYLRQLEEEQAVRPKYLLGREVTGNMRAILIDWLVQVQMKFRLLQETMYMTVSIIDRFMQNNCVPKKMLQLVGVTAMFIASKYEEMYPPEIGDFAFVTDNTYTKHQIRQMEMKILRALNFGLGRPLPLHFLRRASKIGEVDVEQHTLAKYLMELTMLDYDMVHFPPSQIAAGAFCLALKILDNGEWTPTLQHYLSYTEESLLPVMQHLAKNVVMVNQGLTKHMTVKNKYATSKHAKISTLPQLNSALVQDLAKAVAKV

IC50 [1] [nM]	IC50 [2] [nM]	SMILES
61	4.9	CN1c2ccc(Nc3cc([C@@H]4CC[C@H](OC(=O)NC5(CO)CC5)C4)[nH]n3)cc2CS1(=O)=O (relative stereo) [Example 342, cis-3-(3-((1-methyl-2,2-dioxido-1,3-dihydrobenzo[c]isothiazol-5-yl)amino)-1H-pyrazol-5-yl)cyclopentyl(1-(hydroxymethyl)cyclopropyl)carbamate]
105	2.1	COCC(C)(C)NC(=O)O[C@H]1CC[C@@H](c2cc(Nc3ccc4c(c3F)CS(=O)(=O)N4C3CC3)n[nH]2)C1 (relative stereo) [Example 401, cis-3-(3-((1-cyclopropyl-4-fluoro-2,2-dioxido-1,3-dihydrobenzo[c]isothiazol-5-yl)amino)-1H-pyrazol-5-yl)cyclopentyl(1-methoxy-2-methylpropan-2-yl)carbamate]
1730	42	CC(NC(=O)O[C@H]1CC[C@@H](c2cc(Nc3ccc4c(c3F)CN(C)S4(=O)=O)n[nH]2)C1)C1COC1 (relative stereo) [Example 337, cis-3-(3-((4-fluoro-2-methyl-1,1-dioxido-2,3-dihydrobenzo[d]isothiazol-5-yl)amino)-1H-pyrazol-5-yl)cyclopentyl(1-(oxetan-3-yl)ethyl)carbamate]
37	1.5	CC[C@H](C)NC(=O)O[C@H]1CC[C@@H](c2cc(Nc3ccc4c(c3F)CS(=O)(=O)N4C)n[nH]2)C1 (relative stereo) [Example 258, cis-3-(3-((4-fluoro-1-methyl-2,2-dioxido-1,3-dihydrobenzo[c]isothiazol-5-yl)amino)-1H-pyrazol-5-yl)cyclopentyl((S)-sec-butyl)carbamate]

Further lines, the molecule ahead of its results:

SMILES	IC50 [1] [nM]	IC50 [2] [nM]
CC(C)NC(=O)O[C@H]1CC[C@@H](c2cc(Nc3ccc4c(c3F)CN(C3CCN(S(C)(=O)=O)C3)S4(=O)=O)n[nH]2)C1 (relative stereo) [Example 85, cis-3-(3-((4-fluoro-2-(1-(methylsulfonyl)pyrrolidin-3-yl)-1,1-dioxido-2,3-dihydrobenzo[d]isothiazol-5-yl)amino)-1H-pyrazol-5-yl)cyclopentyl isopropylcarbamate]	470	4.6
CC(C)(O)CNC(=O)O[C@H]1CC[C@@H](c2cc(Nc3ccc4c(c3F)CNS4(=O)=O)n[nH]2)C1 (relative stereo) [Example 146, cis-3-(3-((4-fluoro-1,1-dioxido-2,3-dihydrobenzo[d]isothiazol-5-yl)amino)-1H-pyrazol-5-yl)cyclopentyl(2-hydroxy-2-methylpropyl)carbamate]	323	8.1
CC1(NC(=O)O[C@H]2CC[C@@H](c3cc(Nc4ccc5c(c4)CS(=O)(=O)N5)n[nH]3)C2)CC1 (relative stereo) [Example 232, cis-3-(3-((2,2-dioxido-1,3-dihydrobenzo[c]isothiazol-5-yl)amino)-1H-pyrazol-5-yl)cyclopentyl(1-methylcyclopropyl)carbamate]	27	12
COc1cc2c(cc1Nc1cc([C@@H]3CC[C@H](OC(=O)NC(C)C)C3)[nH]n1)S(=O)(=O)NC2(C)C (relative stereo) [Example 183, cis-3-(3-((5-methoxy-3,3-dimethyl-1,1-dioxido-2,3-dihydrobenzo[d]isothiazol-6-yl)amino)-1H-pyrazol-5-yl)cyclopentyl isopropylcarbamate]	7570	1390
CCCNC(=O)O[C@H]1CC[C@@H](c2cc(Nc3ccc4c(c3F)CN(C3COC3)S4(=O)=O)n[nH]2)C1 (relative stereo) [Example 136, cis-3-(3-((4-fluoro-2-(oxetan-3-yl)-1,1-dioxido-2,3-dihydrobenzo[d]isothiazol-5-yl)amino)-1H-pyrazol-5-yl)cyclopentyl propylcarbamate]	457	22
